Experimental data as given in article PMC8151276, “An Integrated Approach toward NanoBRET Tracers for Analysis of GPCR Ligand Engagement” (Molecules, 2021).

Molecular target: T1, NPSR1 (Homo sapiens, UniProt Q6W5P4)
T1 construct: purchased Promega (in-house HiBiT-GPCR construct library, NanoBRET)
T1 sequence (Q6W5P4 1-371): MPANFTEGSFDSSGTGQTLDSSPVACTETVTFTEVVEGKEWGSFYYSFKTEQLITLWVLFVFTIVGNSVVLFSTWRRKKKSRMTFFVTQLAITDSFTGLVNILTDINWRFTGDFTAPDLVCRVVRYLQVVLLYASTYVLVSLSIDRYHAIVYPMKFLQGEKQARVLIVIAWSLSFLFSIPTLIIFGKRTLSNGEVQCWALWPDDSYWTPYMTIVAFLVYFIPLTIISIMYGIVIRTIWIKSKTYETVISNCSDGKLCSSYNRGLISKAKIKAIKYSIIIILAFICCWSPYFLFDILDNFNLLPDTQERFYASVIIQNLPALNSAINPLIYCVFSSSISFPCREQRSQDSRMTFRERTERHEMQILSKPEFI
Assay: NanoBRET screen HiBiT-NPSR1 in HEK293
Assay type: binding
Experimental: Each tracer candidate was screened across the entire library of HiBiT-GPCR constructs using NanoBRET as the detection modality. As depicted in Figure 4A, the specificity of interactions was evaluated through decrease in BRET due to competitive displacement of a bound tracer by excess parental compound. Each tracer was analyzed for binding to each HiBiT-GPCR fusion in the absence and in the presence of competing parental compound. Briefly, HEK293 cells were transfected with HiBiT-GPCR constructs diluted into promoterless DNA to reduce expression and maximize translocation to the cell surface. Each tracer candidate was then screened at concentrations of 1 μM and 0.1 μM across cells expressing these fusions. Cells were treated for 1.5 h with tracer either alone or in the presence of 20 μM competing parental compound (i.e., control). BRET was measured upon addition of purified LgBiT and subsequent complementation with HiBiT genetically fused to a GPCR. The specificity of interactions was assessed through a decrease in BRET signal due to competitive displacement of the bound tracer. To further gauge the robustness of these interactions, the fold response over the control (i.e., BRETtracer/BRETcontrol) was calculated. We chose a 1.5-fold response, which translates to ≥7-fold signal over noise as the minimal threshold required to score an interaction as positive.
HiBiT-GPCR DNA constructs were diluted in 10 mM Tris pH 8 to a final concentration of 0.01 μg/μL, arrayed in 96-well plates and stored at −20 °C. For transfection, HEK293 cells were suspended in Opti-MEM (without phenol red) supplemented with 2% fetal bovine serum (Seradigm) and 100 units/mL penicillin–streptomycin (Gibco) at a final concentration of 220,000 cells/mL and dispensed into white 96-well plates at 90 μL/well. Subsequent transfections and screens were carried using an Agilent Bravo Automated Liquid Handling Platform. First, the 96-well HiBiT DNA arrays were diluted 25-fold in Opti-MEM (without serum or phenol red) to a final concentration of 0.0004 μg/μL and 20 μL of the diluted DNAs were transferred into new 96-well plates. Next, promoterless carrier DNA (1 μg/μL) was diluted 25-fold (0.04 μg/μL) and then dispensed into the diluted arrays at 20 μL/well. Following brief mixing, Viafect transfection reagent (Promega) diluted 16-fold into Opti-MEM was dispensed into the plates at 40 μL/well. After mixing by pipetting, plates were incubated for 10 min on the pipetting station deck. The DNA-transfection reagent complexes were then added to plates containing cells. To facilitate the screen, 10 μL of DNA-transfection reagent complexes were added in duplicates to the top 4 and bottom 4 rows, resulting in two identical 48-well arrays per plate. Plates with transfected cells were incubated for 18–20 h at 37 °C/5% CO2. A screen of each tracer across the entire library using two different concentrations requires duplicate plates of transfected cells. Depending on the number of tracers being screened, transfections can be scaled up using the same ratios. The next day, for each tracer, four 20× screening solutions in tracer dilution buffer (Promega) were prepared: two duplicates at final concentration of 20 μM and two duplicates at a final concentration of 2 μM. […] The four resulting solutions were diluted 4-fold in Opti-MEM without serum or phenol red to generate 5× solutions (5 µM and 0.5 µM tracer +/− 100 μM competing compound). To screen the library, a BioTek MultiFlo FX liquid dispenser was used to dispense 22.5 µL of tracer solution to the top 4 rows and 22.5 µL tracer + competing compound solution to the 4 bottom rows. Plates were briefly mixed on an orbital shaker and incubated for 1.5 h at room temperature. […] Plates were briefly mixed on an orbital shaker and incubated for 15 min to allow complementation.

Compound | NanoBRET Fold Response (NPSR1, tracer 0.1μM) | NanoBRET Fold Response (NPSR1, tracer 1μM) | further results
O=C(CCc1ccc2n1[B-](F)(F)[N+]1=C(c3ccc[nH]3)C=CC1=C2)NCc1ccc(C(=O)NCCOCCC(=O)N[C@@H]2CC[C@@]3(O)[C@H]4Cc5ccc(O)c6c5[C@@]3(CCN4CC3CC3)[C@H]2O6)cc1 [Naltrexone-3-NB590] | 1.12 | 0.92 | 
CN1CCN(C2=Nc3cc(Cl)ccc3N(CC(=O)NCCOCCOCCOCCOCCNC(=O)CCc3ccc4n3[B-](F)(F)[N+]3=C(c5ccc[nH]5)C=CC3=C4)c3ccccc32)CC1 [Clozapine-c-2-NB590] |  |  | NanoBRET Fold Response (NPSR1, 0.1μM tracer): 1.02; NanoBRET Fold Response (NPSR1, 1μM tracer): 1.02
O=C(CCOCCOCCOCCOCCNC(=O)CCc1ccc2n1[B-](F)(F)[N+]1=C(c3ccc[nH]3)C=CC1=C2)NCCCN1CCN(C2=Nc3cc(Cl)ccc3Nc3ccccc32)CC1 [Clozapine-a-2-NB590] |  |  | NanoBRET Fold Response (NPSR1, 0.1μM tracer): 0.93; NanoBRET Fold Response (NPSR1, 1μM tracer): 1.15
CCOC(=O)c1cc(C#N)c(N2CCC(C(=O)NS(=O)(=O)Cc3ccccc3/C=C/C(=O)NCCNC(=O)CCc3ccc4n3[B-](F)(F)[N+]3=C(c5ccc[nH]5)C=CC3=C4)CC2)nc1C [AZD1283-1-NB590] |  |  | NanoBRET Fold Response (NPSR1, 0.1μM): 1.02; NanoBRET Fold Response (NPSR1, 1μM): 1.06
COc1ccc2[nH]c(-c3ccc(CNC(=O)CCOCCOCCOCCOCCNC(=O)CCc4ccc5n4[B-](F)(F)[N+]4=C(c6ccc[nH]6)C=CC4=C5)cc3)c(CCNC(C)=O)c2n1 [AzomelatoninICO9-2-NB590] |  |  | NanoBRET Fold Response (0.1μM tracer): 0.98; NanoBRET Fold Response (1μM tracer): 0.96
CCCn1c(=O)c2[nH]c(-c3ccc(OCC(=O)NCCNC(=O)CCOCCNC(=O)c4ccc(CNC(=O)CCc5ccc6n5[B-](F)(F)[N+]5=C(c7ccc[nH]7)C=CC5=C6)cc4)cc3)nc2n(CCC)c1=O [XAC-3-NB590] | 0.90 | 0.92 | 
COc1ccccc1N1CCN(CCCCN2C(=O)c3ccc(CNC(=O)CCOCCNC(=O)c4ccc(CNC(=O)CCc5ccc6n5[B-](F)(F)[N+]5=C(c7ccc[nH]7)C=CC5=C6)cc4)cc3C2=O)CC1 [NAN-190-3-NB590] | 1.10 | 1.17 | 
O=C(CCc1ccc2n1[B-](F)(F)[N+]1=C(c3ccc[nH]3)C=CC1=C2)NCc1ccc(C(=O)NCCOCCOCCNCC(O)COc2cccc3ccccc23)cc1 (stereo not drawn) [Propranolol-3-NB590] |  |  | NanoBRET Fold Response (NPSR1, 0.1μM): 1.00; NanoBRET Fold Response (NPSR1, 1μM): 0.98
COc1ccc2c(n1)c(CCNC(C)=O)cn2CCNC(=O)CCc1ccc2n1[B-](F)(F)[N+]1=C(c3ccc[nH]3)C=CC1=C2 [Azamelatonin-1-NB590] |  |  | NanoBRET Fold Response (0.1μM tracer): 0.96; NanoBRET Fold Response (1μM tracer): 0.84
O=C(CCOCCOCCOCCOCCNC(=O)CCc1ccc2n1[B-](F)(F)[N+]1=C(c3ccc[nH]3)C=CC1=C2)NCCCN1CCN(C2=Nc3ccccc3Oc3ccc(Cl)cc32)CC1 [Loxapine-a-2-NB590] | 0.98 | 1.04 | 
COc1ccccc1N1CCN(CCCCN2C(=O)c3ccc(CNC(=O)CCOCCOCCOCCOCCNC(=O)CCc4ccc5n4[B-](F)(F)[N+]4=C(c6ccc[nH]6)C=CC4=C5)cc3C2=O)CC1 [NAN-190-2-NB590] | 0.90 | 0.93 | 
CC(C)N(CC[C@H](c1ccccc1)c1cc(CCNC(=O)c2ccc(CNC(=O)CCc3ccc4n3[B-](F)(F)[N+]3=C(c5ccc[nH]5)C=CC3=C4)cc2)ccc1O)C(C)C [Tolterodine-BZ-NB590] | 1.12 | 0.99 | 
O=C(CCc1ccc2n1[B-](F)(F)[N+]1=C(c3ccc[nH]3)C=CC1=C2)NCCOCCOCCNC(=O)OCCOCCN1CCN(C2=Nc3ccccc3Sc3ccccc32)CC1 [Quetiapine-a-2-NB590] | 0.87 | 0.90 | 
CN1CCN(C2=Nc3cc(Cl)ccc3Nc3ccc(CNC(=O)CCOCCOCCOCCOCCNC(=O)CCc4ccc5n4[B-](F)(F)[N+]4=C(c6ccc[nH]6)C=CC4=C5)cc32)CC1 [Clozapine-b-2-NB590] |  |  | NanoBRET Fold Response (NPSR1, 0.1μM tracer): 1.05; NanoBRET Fold Response (NPSR1, 1μM tracer): 0.98
CC(C)N(CC[C@H](c1ccccc1)c1cc(CCNC(=O)CCOCCOCCOCCOCCNC(=O)CCc2ccc3n2[B-](F)(F)[N+]2=C(c4ccc[nH]4)C=CC2=C3)ccc1O)C(C)C [Tolterodine-2-NB590] |  | 1.34 | 
CN(C)CCC=C1c2ccccc2CCc2ccc(C(=O)NCCNC(=O)CCOCCOCCOCCOCCNC(=O)CCc3ccc4n3[B-](F)(F)[N+]3=C(c5ccc[nH]5)C=CC3=C4)cc21 [Amitriptyline-a-2-NB590] |  |  | NanoBRET Fold Response (tracer at 0.1μM): 1.01; NanoBRET Fold Response (tracer at 1μM): 0.99
Cc1cc2c(s1)Nc1ccccc1N=C2N1CCN(CCCNC(=O)CCOCCOCCOCCOCCNC(=O)CCc2ccc3n2[B-](F)(F)[N+]2=C(c4ccc[nH]4)C=CC2=C3)CC1 [Olanzapine-a-2-NB590] | 1.01 | 1.17 | 
N#CN=C(NCCCOc1cccc(CN2CCCCC2)c1)NCCNC(=O)CCOCCOCCOCCOCCNC(=O)CCc1ccc2n1[B-](F)(F)[N+]1=C(c3ccc[nH]3)C=CC1=C2 [Aminopotentidine-2-NB590] | 0.99 | 1.01 | 
Cc1nc2n(c(=O)c1CCN1CCC(c3noc4cc(F)ccc34)CC1)CCCC2OC(=O)NCCOCCOCCOCCOCCNC(=O)CCc1ccc2n1[B-](F)(F)[N+]1=C(c3ccc[nH]3)C=CC1=C2 (stereo not drawn) [Risperidone-2-NB590] | 1.00 | 0.90 | 
CN(C)CCC=C1c2ccccc2CCc2ccc(C(=O)NCCNC(=O)CCOCCOCCOCCOCCNC(=O)CCc3ccc4n3[B-](F)(F)[N+]3=C(c5ccc[nH]5)C=CC3=C4)cc21 [Amitriptyline-b-2-NB590] |  |  | NanoBRET Fold Response (tracer at 0.1μM, listed as amitriptyline-b-2-NB590): 0.95; NanoBRET Fold Response (tracer at 1μM, listed as amitriptyline-b-2-NB590): 1.15
